This note sets out measurements from publication PMC7427733, “Novel xylose transporter Cs4130 expands the sugar uptake repertoire in recombinant Saccharomyces cerevisiae strains at high xylose concentrations” (Biotechnology for Biofuels, 2020).

Experiment [1] addresses T1, Gxf1 (Sungouiella intermedia, UniProt Q2MDH1).
T1 sequence (Q2MDH1 1-547): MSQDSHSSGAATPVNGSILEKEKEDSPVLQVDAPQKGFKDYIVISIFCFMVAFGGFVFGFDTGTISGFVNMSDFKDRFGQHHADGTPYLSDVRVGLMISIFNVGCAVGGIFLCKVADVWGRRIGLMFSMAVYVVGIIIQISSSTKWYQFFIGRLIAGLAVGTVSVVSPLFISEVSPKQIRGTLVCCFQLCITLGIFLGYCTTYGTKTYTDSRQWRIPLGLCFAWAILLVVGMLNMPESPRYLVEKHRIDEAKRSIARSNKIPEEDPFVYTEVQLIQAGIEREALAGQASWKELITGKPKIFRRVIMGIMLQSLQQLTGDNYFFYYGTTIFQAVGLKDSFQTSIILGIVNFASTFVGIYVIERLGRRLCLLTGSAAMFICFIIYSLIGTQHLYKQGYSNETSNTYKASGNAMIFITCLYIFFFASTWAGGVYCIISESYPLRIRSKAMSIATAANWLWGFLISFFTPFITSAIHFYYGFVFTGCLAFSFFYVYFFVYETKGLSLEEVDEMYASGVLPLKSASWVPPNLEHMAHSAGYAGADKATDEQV
The experiment can be described thus: growth complementation (spot assay) and sugar consumption (HPLC) in transporter-null yeast. The class given is cell-based. Conditions: S. cerevisiae EBY_Xyl1, 30 °C, xylose 5-50 g/L; uptake inferred.

The target in experiment [2] is T1, Gxf1. The description is as above. It counts as cell-based. Conditions: S. cerevisiae EBY_Xyl1, 30 °C, 20 g/L glucose spot assay; 10 g/L glucose with 10 g/L xylose in fermentation; uptake inferred.

With `OC1OC[C@@H](O)[C@H](O)[C@H]1O` (some centres unmarked) [xylose], the “growth complementation (spot assay) and sugar consumption (HPLC) in transporter-” value at Gxf1 [1] is given as “The facilitator Gxf1 restored growth in all xylose concentrations evaluated”.

Consider `OC[C@H]1OC(O)[C@H](O)[C@@H](O)[C@@H]1O` (some centres unmarked) [glucose], for which the “growth complementation (spot assay) and sugar consumption (HPLC) in transporter-” value on Gxf1 [2] was “Cs3894 and Gxf1 were able to support better and similar patterns of growth on glucose”.
